± gives the expanded uncertainty stated by the source.
Test: activity coefficient (dimensionless); of the first substance listed, at infinite dilution; xn = mol fraction of the nth substance listed
Settings: 338.15 K; 101.33 kPa; Liquid; Chromatography; x1 = 0

CCC(C)(C)OC [2-methoxy-2-methylbutane] + CCCCCCCCCCCC[N+](C)(C)CCOc1ccccc1.N#C[N-]C#N and COC(C)(C)C [2-methoxy-2-methylpropane] + CCCCCCCCCCCC[N+](C)(C)CCOc1ccccc1.N#C[N-]C#N are within error of each other in activity coefficient: 2.56 ± 0.17 for the first, 2.33 ± 0.16 for the second.

First: CCC(C)(C)OC [2-methoxy-2-methylbutane] + CCCCCCCCCCCC[N+](C)(C)CCOc1ccccc1.O=S(=O)([N-]S(=O)(=O)C(F)(F)F)C(F)(F)F
Second: COC(C)(C)C [2-methoxy-2-methylpropane] + CCCCCCCCCCCC[N+](C)(C)CCOc1ccccc1.O=S(=O)([N-]S(=O)(=O)C(F)(F)F)C(F)(F)F
The activity coefficient of the first is higher: 1.36 ± 0.09 for the first, 1.15 ± 0.07 for the second.

CC(C)CO [2-methyl-1-propanol] + CCCCCCCCCCCC[N+](C)(C)CCOc1ccccc1.N#C[N-]C#N and CCC(C)O (configuration not stated) [butan-2-ol] + CCCCCCCCCCCC[N+](C)(C)CCOc1ccccc1.N#C[N-]C#N are within error of each other in activity coefficient: 0.46 ± 0.036 for the first, 0.508 ± 0.038 for the second.

CC(C)CO [2-methyl-1-propanol] + CCCCCCCCCCCC[N+](C)(C)CCOc1ccccc1.O=S(=O)([N-]S(=O)(=O)C(F)(F)F)C(F)(F)F and CCC(C)O (configuration not stated) [butan-2-ol] + CCCCCCCCCCCC[N+](C)(C)CCOc1ccccc1.O=S(=O)([N-]S(=O)(=O)C(F)(F)F)C(F)(F)F are within error of each other in activity coefficient: 1.26 ± 0.08 for the first, 1.17 ± 0.07 for the second.

Compared with CC(C)(C)O [2-methylpropan-2-ol] + CCCCCCCCCCCC[N+](C)(C)CCOc1ccccc1.N#C[N-]C#N, CC(C)=O [acetone] + CCCCCCCCCCCC[N+](C)(C)CCOc1ccccc1.N#C[N-]C#N is higher in activity coefficient: 0.554 ± 0.04 for the first, 0.745 ± 0.049 for the second.

First: CC(C)(C)O [2-methylpropan-2-ol] + CCCCCCCCCCCC[N+](C)(C)CCOc1ccccc1.O=S(=O)([N-]S(=O)(=O)C(F)(F)F)C(F)(F)F
Second: CC(C)=O [acetone] + CCCCCCCCCCCC[N+](C)(C)CCOc1ccccc1.O=S(=O)([N-]S(=O)(=O)C(F)(F)F)C(F)(F)F
The activity coefficient of the first is higher: 1.06 ± 0.07 for the first, 0.375 ± 0.033 for the second.

Going from CCC(C)CC [3-methylpentane] + CCCCCCCCCCCC[N+](C)(C)CCOc1ccccc1.N#C[N-]C#N to CCCCO [butan-1-ol] + CCCCCCCCCCCC[N+](C)(C)CCOc1ccccc1.N#C[N-]C#N, the activity coefficient falls from 5.37 ± 0.37 to 0.473 ± 0.037.

First: CCC(C)CC [3-methylpentane] + CCCCCCCCCCCC[N+](C)(C)CCOc1ccccc1.O=S(=O)([N-]S(=O)(=O)C(F)(F)F)C(F)(F)F
Second: CCCCO [butan-1-ol] + CCCCCCCCCCCC[N+](C)(C)CCOc1ccccc1.O=S(=O)([N-]S(=O)(=O)C(F)(F)F)C(F)(F)F
The activity coefficient of the first is higher: 2.88 ± 0.2 for the first, 1.28 ± 0.08 for the second.

First: C=C(C)c1ccccc1 [(1-methylethenyl)benzene] + CCCCCCCCCCCC[N+](C)(C)CCOc1ccccc1.N#C[N-]C#N
Second: c1ccccc1 [benzene] + CCCCCCCCCCCC[N+](C)(C)CCOc1ccccc1.N#C[N-]C#N
The activity coefficient of the first is higher: 1.18 ± 0.08 for the first, 0.87 ± 0.056 for the second.

Compared with C=C(C)c1ccccc1 [(1-methylethenyl)benzene] + CCCCCCCCCCCC[N+](C)(C)CCOc1ccccc1.O=S(=O)([N-]S(=O)(=O)C(F)(F)F)C(F)(F)F, c1ccccc1 [benzene] + CCCCCCCCCCCC[N+](C)(C)CCOc1ccccc1.O=S(=O)([N-]S(=O)(=O)C(F)(F)F)C(F)(F)F is lower in activity coefficient: 0.881 ± 0.056 for the first, 0.629 ± 0.043 for the second.

CC#N [acetonitrile] + CCCCCCCCCCCC[N+](C)(C)CCOc1ccccc1.N#C[N-]C#N and CCCC=O [butanal] + CCCCCCCCCCCC[N+](C)(C)CCOc1ccccc1.N#C[N-]C#N are within error of each other in activity coefficient: 0.766 ± 0.05 for the first, 0.779 ± 0.051 for the second.

Compared with CC#N [acetonitrile] + CCCCCCCCCCCC[N+](C)(C)CCOc1ccccc1.O=S(=O)([N-]S(=O)(=O)C(F)(F)F)C(F)(F)F, CCCC=O [butanal] + CCCCCCCCCCCC[N+](C)(C)CCOc1ccccc1.O=S(=O)([N-]S(=O)(=O)C(F)(F)F)C(F)(F)F is higher in activity coefficient: 0.506 ± 0.038 for the first, 0.777 ± 0.051 for the second.

C1CCCCCC1 [cycloheptane] + CCCCCCCCCCCC[N+](C)(C)CCOc1ccccc1.N#C[N-]C#N and C1CCCCCCC1 [cyclooctane] + CCCCCCCCCCCC[N+](C)(C)CCOc1ccccc1.N#C[N-]C#N are within error of each other in activity coefficient: 3.29 ± 0.22 for the first, 3.63 ± 0.25 for the second.

First: C1CCCCCC1 [cycloheptane] + CCCCCCCCCCCC[N+](C)(C)CCOc1ccccc1.O=S(=O)([N-]S(=O)(=O)C(F)(F)F)C(F)(F)F
Second: C1CCCCC1 [cyclohexane] + CCCCCCCCCCCC[N+](C)(C)CCOc1ccccc1.N#C[N-]C#N
The activity coefficient of the first is lower: 2.34 ± 0.16 for the first, 3.16 ± 0.22 for the second.

C1CCCCC1 [cyclohexane] + CCCCCCCCCCCC[N+](C)(C)CCOc1ccccc1.O=S(=O)([N-]S(=O)(=O)C(F)(F)F)C(F)(F)F and C1=CCCCC1 [cyclohexene] + CCCCCCCCCCCC[N+](C)(C)CCOc1ccccc1.N#C[N-]C#N are within error of each other in activity coefficient: 2.08 ± 0.14 for the first, 2.19 ± 0.15 for the second.

With C1=CCCCC1 [cyclohexene] + CCCCCCCCCCCC[N+](C)(C)CCOc1ccccc1.O=S(=O)([N-]S(=O)(=O)C(F)(F)F)C(F)(F)F the activity coefficient was 1.56 ± 0.1.

Same assay, conditions: 348.15 K; 101.33 kPa; Liquid; Chromatography; x1 = 0

CCC(C)(C)OC [2-methoxy-2-methylbutane] + CCCCCCCCCCCC[N+](C)(C)CCOc1ccccc1.N#C[N-]C#N and COC(C)(C)C [2-methoxy-2-methylpropane] + CCCCCCCCCCCC[N+](C)(C)CCOc1ccccc1.N#C[N-]C#N are within error of each other in activity coefficient: 2.63 ± 0.18 for the first, 2.38 ± 0.16 for the second.

Going from CCC(C)(C)OC [2-methoxy-2-methylbutane] + CCCCCCCCCCCC[N+](C)(C)CCOc1ccccc1.O=S(=O)([N-]S(=O)(=O)C(F)(F)F)C(F)(F)F to COC(C)(C)C [2-methoxy-2-methylpropane] + CCCCCCCCCCCC[N+](C)(C)CCOc1ccccc1.O=S(=O)([N-]S(=O)(=O)C(F)(F)F)C(F)(F)F, the activity coefficient falls from 1.43 ± 0.09 to 1.21 ± 0.08.

Compared with CC(C)CO [2-methyl-1-propanol] + CCCCCCCCCCCC[N+](C)(C)CCOc1ccccc1.N#C[N-]C#N, CCC(C)CC [3-methylpentane] + CCCCCCCCCCCC[N+](C)(C)CCOc1ccccc1.N#C[N-]C#N is higher in activity coefficient: 0.469 ± 0.037 for the first, 5.41 ± 0.37 for the second.

First: CC(C)CO [2-methyl-1-propanol] + CCCCCCCCCCCC[N+](C)(C)CCOc1ccccc1.O=S(=O)([N-]S(=O)(=O)C(F)(F)F)C(F)(F)F
Second: CCC(C)CC [3-methylpentane] + CCCCCCCCCCCC[N+](C)(C)CCOc1ccccc1.O=S(=O)([N-]S(=O)(=O)C(F)(F)F)C(F)(F)F
The activity coefficient of the first is lower: 1.21 ± 0.08 for the first, 2.95 ± 0.2 for the second.

Going from CC(C)(C)O [2-methylpropan-2-ol] + CCCCCCCCCCCC[N+](C)(C)CCOc1ccccc1.N#C[N-]C#N to CC(C)=O [acetone] + CCCCCCCCCCCC[N+](C)(C)CCOc1ccccc1.N#C[N-]C#N, the activity coefficient rises from 0.569 ± 0.041 to 0.767 ± 0.05.

Compared with CC(C)(C)O [2-methylpropan-2-ol] + CCCCCCCCCCCC[N+](C)(C)CCOc1ccccc1.O=S(=O)([N-]S(=O)(=O)C(F)(F)F)C(F)(F)F, CC(C)=O [acetone] + CCCCCCCCCCCC[N+](C)(C)CCOc1ccccc1.O=S(=O)([N-]S(=O)(=O)C(F)(F)F)C(F)(F)F is lower in activity coefficient: 1.02 ± 0.06 for the first, 0.398 ± 0.034 for the second.

Going from C=C(C)c1ccccc1 [(1-methylethenyl)benzene] + CCCCCCCCCCCC[N+](C)(C)CCOc1ccccc1.N#C[N-]C#N to CC#N [acetonitrile] + CCCCCCCCCCCC[N+](C)(C)CCOc1ccccc1.N#C[N-]C#N, the activity coefficient falls from 1.25 ± 0.08 to 0.775 ± 0.051.

Compared with C=C(C)c1ccccc1 [(1-methylethenyl)benzene] + CCCCCCCCCCCC[N+](C)(C)CCOc1ccccc1.O=S(=O)([N-]S(=O)(=O)C(F)(F)F)C(F)(F)F, CC#N [acetonitrile] + CCCCCCCCCCCC[N+](C)(C)CCOc1ccccc1.O=S(=O)([N-]S(=O)(=O)C(F)(F)F)C(F)(F)F is lower in activity coefficient: 0.931 ± 0.059 for the first, 0.523 ± 0.039 for the second.
